Several values for one entry are separate records, joined by “and”; a condition that tells them apart may be missing. Equal values may be shown once.
Experiments:
Format in all cases: biochemical
[1] = target: T1, caspase-8 (Homo sapiens, UniProt Q14790); test: Enzymatic kinetic studies, determination of kobs/I inhibition parameter; conditions: substrate Ac-LEHD-ACC (100uM), 37°C, dot = thousands separator; for kobs/I: pseudo-first-order conditions
T1 construct: made in house
Method: (§1) The measurement of kobs/l inhibition parameter (second order rate of enzyme inhibition) of synthesized inhibitors towards caspases-2, -3, and -8 was performed using a fMax spectrofluorimeter (Molecular Devices, Sunnyvale, CA, USA) operating in fluorescence kinetic mode in 96-well Corning (Corning, NY, USA) plates. Before kinetic analysis, all caspases were active site-titrated using the zVAD-fmk inhibitor (Cayman Chemical Company, Cat No. 14467). The caspases assay buffer was 10% w/v sucrose, 1M sodium citrate, 20 mM Pipes, 10 mM NaCl, 1 mM EDTA, and 10 mM DTT (pH = 7.3). Buffers were prepared at room temperature, and all kinetic assays were performed at 37°C. The kobs/l parameter was measured under pseudo-first-order kinetic conditions ([I] » [E]). Inhibitor (20uL) was diluted in a 96-well plate and mixed with the appropriate substrate (20uL); NH-ldc-hGlu-Thr(Bzl)-Ser-Asp-ACC (50uM) for caspase-2, Ac-DEVD-ACC (100uM) for caspase-3 and Ac-LEHD-ACC (100uM) for caspase-8. The ACC fluorescence was monitored using 355 nm (excitation) and 460 nm (emission) wavelengths. The substrate-inhibitor mixture (40uL in total) were pre-incubated at 37C for 15 min. At the same time in a separate tube, the caspase was preincubated in assay buffer at 37C, and after 15 min, the enzyme was added to wells (60uL per well, total reaction volume 100uL) and the fluorescence was monitored for 30min, starting immediately. Second-order rate of inhibition (kobs/l) was determined in at least three independent experiments and presented as an average value. GraphPad Prism 7 software was used for calculations (see figure 2).
(§2) The detailed protocol for the expression and purification of human apoptotic caspases can be found elsewhere (Stennicke, 1999).

[2] = target: T2, caspase-3 (Homo sapiens, UniProt P42574); test: as above; conditions: substrate Ac-DEVD-ACC (100uM), 37°C, dot = thousands separator; for kinact/KI: 0.5 h, pH 7.3, pseudo-first-order conditions; for kobs/I: pseudo-first-order conditions
T2 construct: made in house
T2 sequence (P42574 29-175 limits assumed): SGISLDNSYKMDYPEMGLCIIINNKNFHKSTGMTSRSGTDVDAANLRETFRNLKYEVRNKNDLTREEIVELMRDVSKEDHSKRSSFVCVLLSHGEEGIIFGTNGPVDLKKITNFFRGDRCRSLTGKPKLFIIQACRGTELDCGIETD
T2 sequence (P42574 176-277 limits assumed): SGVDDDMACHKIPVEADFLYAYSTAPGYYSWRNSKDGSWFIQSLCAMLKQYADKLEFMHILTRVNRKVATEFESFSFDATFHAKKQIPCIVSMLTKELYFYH
Method: as §1, §2

[3] = target: T3, caspase-2 (Homo sapiens, UniProt P42575); test: as above; parameters: made in house; conditions: for kobs/I: Caspase-2, pseudo-first-order conditions, substrate NH-ldc-hGlu-Thr(Bzl)-Ser-Asp-ACC (50uM), 37°C, dot = thousands separator
T3 sequence (P42575 170-333 limits assumed): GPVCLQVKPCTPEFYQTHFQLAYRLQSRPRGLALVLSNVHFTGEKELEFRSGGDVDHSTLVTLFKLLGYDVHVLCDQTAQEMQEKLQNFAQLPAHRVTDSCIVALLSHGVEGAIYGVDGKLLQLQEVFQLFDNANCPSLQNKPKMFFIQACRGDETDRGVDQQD
T3 sequence (P42575 348-452 limits assumed): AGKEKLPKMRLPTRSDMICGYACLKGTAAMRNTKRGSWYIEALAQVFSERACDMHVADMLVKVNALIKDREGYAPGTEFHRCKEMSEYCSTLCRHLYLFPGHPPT
Method: as §1, §2

[4] = target: T3, caspase-2; test: Kinetic assay of individual fluorogenic substrates NH-Idc-P4-P3-Dab-Asp-ACC (Example 4); conditions: substrate 10µM, caspase-2 10nM, 37°C; relative to NH-Idc-hGlu-Glu(Chx)-Dab-Asp-ACC
Method: Caspase-2 substrates were synthesized according to standard SPPS procedure, purified on HPLC, lyophilized and dissolved in DMSO to the final concentration of 20mM (Poreba et al. 2014, CDD). In particular, the following caspase-2 substrates were synthesized to carry out the present example: [drawing 66] [drawing 67] [drawing 68] [drawing 69] [drawing 70] [drawing 71]
Prior to kinetic assay, substrates (several µL) were diluted in DMSO to the […] (working concentration). Next, 1µL of such substrate was spot into the well of 96-well plate following by the addition of […] of caspase-2 in buffer. Immediately after the enzyme was added, the plate was placed in fluorescence plate reader and the fluorescence was measured over the time in a kinetic mode (excitation 355nm, emission 460nm). The liberation of fluorescence was carried out for 30 minutes, and only linear portion of the plot was taken for analysis to calculate the rate of the reaction. The rate of best cleaved substrate was set to 100% and all other substrates were adjusted accordingly (cleavage rate, %). The final concentration of substrate was 10µM, and the final concentration of caspase-2 was 10nM. The caspase-2 assay buffer was 20mM Pipes, 100mM NaCl, sucrose 10% (w/v), 10mM DTT, pH 7.2-7.4. The caspase-2 was preincubated in buffer at 37°C for 15 min before added to the substrate.

[5] = target: T1, caspase-8; test: P2 substrates screening, rate of substrate hydrolysis (ACC fluorescence); conditions: substrate 10mM (so in the source), caspase-8 40nM, 37°C, rate per 10nM of caspase
Method: (§3) The detailed protocol for the expression and purification of human apoptotic caspases can be found elsewhere (Stennicke, 1999). […] The ACC fluorescence was monitored using 355 nm (excitation) and 460 nm (emission) wavelengths. Before kinetic analysis, all caspases were active site-titrated using the zVAD-fmk inhibitor (Cayman Chemical Company, Cat No. 14467). […] Buffers were prepared at room temperature, and all kinetic assays were performed at 37°C. […] The total volume in a single well was […]. The total assay time was 30 min, but only the linear portion of the fluorescence progress curve was taken for the analysis. The kinetic data were analyzed using Graph Pad Prism software. […]

[6] = target: T2, caspase-3; test: as above; conditions: substrate 10mM (so in the source), caspase-3 15nM, 37°C, rate per 10nM of caspase
Method: as §3

[7] = target: T3, caspase-2; test: as above; parameters: made in house
Method: as §3

T1 sequence (Q14790 217-374 limits assumed): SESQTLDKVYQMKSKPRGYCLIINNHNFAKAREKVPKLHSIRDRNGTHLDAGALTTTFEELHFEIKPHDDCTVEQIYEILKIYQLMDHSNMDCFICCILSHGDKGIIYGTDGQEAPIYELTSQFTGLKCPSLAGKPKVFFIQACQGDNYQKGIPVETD
T1 sequence (Q14790 385-479 limits assumed): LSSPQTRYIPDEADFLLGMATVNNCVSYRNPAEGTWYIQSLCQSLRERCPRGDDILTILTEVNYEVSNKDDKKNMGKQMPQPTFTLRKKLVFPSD

Compound | RFU/s, %, average (cleavage rate, best substrate set to 100%) [4] | other results
Cc1cccc(C)c1C(=O)OCC(=O)[C@H](CC(=O)O)NC(=O)[C@H](CCN)NC(=O)[C@@H](NC(=O)[C@H](CCCC(=O)O)NC(=O)[C@@H]1Cc2ccccc2N1)[C@@H](C)OCc1ccccc1 [NH-Idc-hGlu-Thr(Bzl)-Dab-Asp-AOMK] | – | kinact/KI ([1]; 0.5 h, pH 7.3, pseudo-first-order conditions): 415 M⁻¹ s⁻¹; kinact/KI [2]: 443 M⁻¹ s⁻¹; kobs/I [3]: 342.000 M⁻¹ s⁻¹
Cc1cccc(C)c1C(=O)OCC(=O)[C@H](CC(=O)O)NC(=O)[C@H](CCCCN)NC(=O)[C@@H](NC(=O)[C@H](CCCC(=O)O)NC(=O)[C@@H]1Cc2ccccc2N1)[C@@H](C)OCc1ccccc1 [NH-Idc-hGlu-Thr(Bzl)-Lys-Asp-AOMK] | – | kobs/I [1]: 9.900 M⁻¹ s⁻¹; kobs/I [2]: 2.570 M⁻¹ s⁻¹; kobs/I [3]: 400.000 M⁻¹ s⁻¹
Cc1cccc(C)c1C(=O)OCC(=O)[C@H](CC(=O)O)NC(=O)[C@H](CCCN)NC(=O)[C@@H](NC(=O)[C@H](CCCC(=O)O)NC(=O)[C@@H]1Cc2ccccc2N1)[C@@H](C)OCc1ccccc1 [NH-Idc-hGlu-Thr(Bzl)-Orn-Asp-AOMK] | – | kobs/I [1]: 2.300 M⁻¹ s⁻¹; kinact/KI [2]: 636 M⁻¹ s⁻¹; kobs/I [3]: 390.000 M⁻¹ s⁻¹
Cc1cccc(C)c1C(=O)OCC(=O)[C@H](CC(=O)O)NC(=O)[C@H](CO)NC(=O)[C@@H](NC(=O)[C@H](CCCC(=O)O)NC(=O)[C@@H]1Cc2ccccc2N1)[C@@H](C)OCc1ccccc1 [NH-Idc-hGlu-Thr(Bzl)-Ser-Asp-AOMK, reference compound] | – | kobs/I [1]: 11.600 M⁻¹ s⁻¹; kobs/I [2]: 21.000 M⁻¹ s⁻¹; kobs/I [3]: 665.000 M⁻¹ s⁻¹
NH-Idc-Asp-Glu(Chx)-Dab-Asp-ACC | 0,2% | –
NH-Idc-Asp-Glu-Dab-Asp-ACC | 0,2% | –
NH-Idc-Ile-Abu-Dab-Asp-ACC | 0,0% | –
NH-Idc-Ile-Glu(Chx)-Dab-Asp-ACC | 6,3% | –
NH-Idc-Ile-Thr(Bzl)-Dab-Asp-ACC | 0,0% | –
NH-Idc-Ile-Val-Dab-Asp-ACC | 0,0% | –
NH-Idc-Leu-Glu-Dab-Asp-ACC | 0,7% | –
NH-Idc-Leu-Thr(Bzl)-Dab-Asp-ACC | 0,0% | –
NH-Idc-Leu-Val-Dab-Asp-ACC | 0,0% | –
NH-Idc-hGlu-Glu-Dab-Asp-ACC | 75,2% and 72,5% | –
NH-Idc-hGlu-Thr(Bzl)-Dap-Asp-AOMK | – | kobs/I [1]: 5.300 M⁻¹ s⁻¹; kobs/I [2]: 8.300 M⁻¹ s⁻¹; kobs/I [3]: 372.000 M⁻¹ s⁻¹; SELECTIVITY Caspase2 vs.Caspase3, C2/C3 kobs/I ([3]; division of kobs/I values, caspase-2/caspase-3): 44.8; SELECTIVITY Caspase2 vs.Caspase8, C2/C8 kobs/I ([3]; division of kobs/I values, caspase-2/caspase-8): 70.2
NH-Idc-hLeu-Abu-Dab-Asp-ACC | 0,0% | –
NH-Idc-hLeu-Glu-Dab-Asp-ACC | 0,0% | –
NH-Idc-hLeu-Thr(Bzl)-Dab-Asp-ACC | 0,0% | –
NH-ldc-hGlu-Thr(Bzl)-Ser-Asp-ACC | – | rate of substrate hydrolysis, Caspase-8 [5]: 6,57 RFU/s/10nM; rate of substrate hydrolysis, Caspase-3 [6]: 4,75 RFU/s/10nM; Casp-2 vs Casp-3 ([7]; ratio of hydrolysis rates caspase-2/caspase-3): 38,49; Casp-2 vs Casp-8 ([7]; ratio of hydrolysis rates caspase-2/caspase-8): 27,82; rate of substrate hydrolysis, Caspase-2 ([7]; substrate 10mM (so in the source), caspase-2 5nM, 37°C, rate per 10nM of caspase): 182,81 RFU/s/10nM

Second part, led by results:

RFU/s, %, average (cleavage rate, best substrate set to 100%) [4] | Compound | other results
0,0% | NH-Idc-Asp-Abu-Dab-Asp-ACC | –
0,0% | NH-Idc-Asp-Thr(Bzl)-Dab-Asp-ACC | –
0,3% | NH-Idc-Asp-Val-Dab-Asp-ACC | –
0,8% | NH-Idc-Ile-Glu-Dab-Asp-ACC | –
0,0% | NH-Idc-Leu-Abu-Dab-Asp-ACC | –
6,9% | NH-Idc-Leu-Glu(Chx)-Dab-Asp-ACC | –
26,2% | NH-Idc-hGlu-Abu-Dab-Asp-ACC | –
100,0% and 91,7% | NH-Idc-hGlu-Glu(Chx)-Dab-Asp-ACC | –
76,1% | NH-Idc-hGlu-Glu(Me)-Dab-Asp-ACC | –
5,9% and 4,6% | NH-Idc-hGlu-Thr(Bzl)-Dab-Asp-ACC | –
5,6% and 6,5% | NH-Idc-hGlu-Val-Dab-Asp-ACC | –
0,7% | NH-Idc-hLeu-Glu(Chx)-Dab-Asp-ACC | –
0,0% | NH-Idc-hLeu-Val-Dab-Asp-ACC | –
